Measurements reported in ChEMBL document CHEMBL1201862, “PubChem BioAssay data set” (2004).
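Cultured in 96-well plates, cells were exposed to test compound for 48 hours across five concentrations. GI50: concentration for 50% inhibition of growth.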 Activity calls are given as the source filed them. Cut-off read from the data, not from the text of the source: active = GI50 up to about 1.1 µM and inactive = higher. Where a SMILES comes first, the peptide text is derived from it. The star is where a group is joined. Cbz = O=C(OCc1ccccc1)*; NHNH2 = NN*

Tests used:
Experiment in all cases: growth of human tumour cells (NCI), 48 h
LXFL 529 = test system: LXFL 529
DMS-114 = test system: DMS-114
T47D = test system: T47D
MDA-N = test system: MDA-N
MDA-MB-435 = test system: MDA-MB-435
MDA-MB-231 = test system: MDA-MB-231
HOP-18 = test system: HOP-18
DLD-1 = test system: DLD-1

Compound	GI50 (LXFL 529)	GI50 (DMS-114)	GI50 (T47D)	GI50 (MDA-N)	GI50 (MDA-MB-435)	GI50 (MDA-MB-231)	GI50 (HOP-18)	GI50 (DLD-1)
CCOC(=O)CSc1cc[nH]c(=O)n1	> 100 µM (inactive)	> 100 µM (inactive)	–	–	–	–	–	–
CCOC(O)(NC(=O)C(C(F)(F)F)C(F)(F)F)C(F)(F)F (stereo not given)	–	–	> 100 µM (inactive)	> 100 µM (inactive)	> 100 µM (inactive)	–	–	–
C=CCOC1=C(OC(C)=O)C(C2COC(C)(C)O2)OC1=O (stereo not given)	–	–	18.5 µM (inactive)	29.7 µM (inactive)	21.9 µM (inactive)	17.1 µM (inactive)	–	–
CCOC(=O)CCC(NC(=O)OCc1ccccc1)C(=O)NC(CCC(=O)OCC)C(=O)NN (stereo not given) (Cbz-Glu(OEt)-Glu(OEt)-NHNH2; configuration not given here)	–	–	–	> 100 µM (inactive)	–	> 100 µM (inactive)	–	–
O=C(c1ccco1)C1CC(c2ccc3ccccc3c2O)=NN1 (stereo not given)	–	–	92.7 µM (inactive)	59.4 µM (inactive)	56.6 µM (inactive)	30.8 µM (inactive)	–	–
CC[S+]1C2=C(CC(C)(C)CC2=O)[N-]c2ccccc21 (stereo not given)	–	–	> 100 µM (inactive)	> 100 µM (inactive)	> 100 µM (inactive)	> 100 µM (inactive)	–	–
CCCCCC[C@H]1C(=O)O[C@H](C)[C@H](NC(=O)c2cccc(NC=O)c2OC)C(=O)O[C@@H](C)[C@@H]1OC(=O)C(C)CC.CCCCCC[C@H]1C(=O)O[C@H](C)[C@H](NC(=O)c2cccc(NC=O)c2OC)C(=O)O[C@@H](C)[C@@H]1OC(=O)CC(C)C (stereo not given in full)	–	–	20.8 µM (inactive)	13.2 µM (inactive)	11.6 µM (inactive)	15.8 µM (inactive)	–	–
Clc1ccc(-c2nn3c(-c4ccncc4)nnc3s2)cc1	–	–	> 100 µM (inactive)	> 100 µM (inactive)	> 100 µM (inactive)	66.7 µM (inactive)	–	–
COc1ccc(/C=N/C23CC4CC(CC(C4)C2)C3)cc1	–	> 100 µM (inactive)	–	–	–	–	–	–
NS(=O)(=O)c1cc(C(=O)O)c(Cl)c([N+](=O)[O-])c1Cl	–	–	> 100 µM (inactive)	> 100 µM (inactive)	> 100 µM (inactive)	> 100 µM (inactive)	–	–
O=c1c2c(F)c(F)c(F)c(F)c2sc2nccn12	–	–	0.745 µM (active)	14.4 µM (inactive)	14.9 µM (inactive)	20.3 µM (inactive)	–	–
OCC1OC(n2nc(-c3ccccc3)nc2-c2cnccn2)C(O)C(O)C1O (stereo not given)	–	–	> 100 µM (inactive)	> 100 µM (inactive)	> 100 µM (inactive)	> 100 µM (inactive)	–	–
COc1ccc(C2NC(N)=C(C#N)C3=C2C(C)CCC3)cc1OC (stereo not given)	–	–	2.96 µM (inactive)	> 100 µM (inactive)	63.5 µM (inactive)	59.7 µM (inactive)	–	–
CC(=O)OC1COC(n2c(=S)n(-c3ccccc3)c(=O)c3cc(Br)ccc32)C(OC(C)=O)C1OC(C)=O (stereo not given)	27 µM (inactive)	51.6 µM (inactive)	–	–	–	–	> 100 µM (inactive)	–
Cn1c2c(c3ccccc31)CC(=O)N1CCCC(C1)CC21OCCO1 (stereo not given)	–	–	> 100 µM (inactive)	33.5 µM (inactive)	> 100 µM (inactive)	> 100 µM (inactive)	–	–
CC1=NN(c2nc(N)nc(CSCc3nc(N)nc(N(C)C)n3)n2)C(C)(C)C1	–	–	> 100 µM (inactive)	–	> 100 µM (inactive)	> 100 µM (inactive)	–	–
CCOC(=O)c1cc(C(=O)c2ccccc2)n2nc(-c3ccc(Cl)cc3)ccc12	–	–	21.9 µM (inactive)	48.8 µM (inactive)	33.6 µM (inactive)	36.2 µM (inactive)	–	–
COc1ccc(OC)c2sc(N3C(=O)/C(=C/c4cccc([N+](=O)[O-])c4)N=C3c3ccccc3)nc12	–	–	22.3 µM (inactive)	32.4 µM (inactive)	23.9 µM (inactive)	> 100 µM (inactive)	–	–
NCCCC[C@H](N)C(=O)Nc1ccc(-c2nc3ccccc3s2)cc1Cl	–	–	< 0.0478 µM (active)	4.46 µM (inactive)	4.9 µM (inactive)	11.6 µM (inactive)	–	–
NNC(=O)c1ccc(OCc2nc3ccccc3[nH]2)cc1	–	–	53.7 µM (inactive)	> 100 µM (inactive)	> 100 µM (inactive)	> 100 µM (inactive)	–	–
COc1cc(/C=C2\N=C(c3ccccc3)N(c3ccc(S(=O)(=O)Nc4nccs4)cc3)C2=O)ccc1O	–	–	85.5 µM (inactive)	–	95.3 µM (inactive)	–	–	–
Cn1c(O)c(C2=Nc3ccccc3C2=O)c2ccccc21	–	–	> 100 µM (inactive)	> 100 µM (inactive)	> 100 µM (inactive)	> 100 µM (inactive)	–	–
C=C1C[C@]23C[C@@]1(O)CC[C@H]2[C@@]12C=C[C@H](O)[C@@](C)(C(=O)O1)[C@H]2[C@@H]3C(=O)O [GIBBERELLIN A3]	–	> 100 µM (inactive)	–	–	–	–	–	> 100 µM (inactive)
CCCCNC(=O)Nc1c(C(N)=O)c2n(c1C(=O)OCC)CCCCC2	–	–	> 100 µM (inactive)	–	> 100 µM (inactive)	21.3 µM (inactive)	–	–
O=C1OC2(C(F)(F)F)Oc3ccccc3CN2C12CCCCC2 (stereo not given)	–	–	21.8 µM (inactive)	29.1 µM (inactive)	39.6 µM (inactive)	24.2 µM (inactive)	–	–
CC(C)(C)OC(=O)NCC(=O)N(CCc1ccc(Cl)c(Cl)c1)CCN1CCCC1	–	–	22.7 µM (inactive)	14.3 µM (inactive)	13.9 µM (inactive)	13.1 µM (inactive)	–	–
CC(=O)C1(C(=O)C(=[N+]=[N-])S(=O)(=O)c2ccccc2)CC1	–	–	–	> 100 µM (inactive)	> 100 µM (inactive)	> 100 µM (inactive)	–	–

Compound	GI50 (LXFL 529)	GI50 (DMS-114)	GI50 (T47D)	GI50 (MDA-N)	GI50 (MDA-MB-435)	GI50 (MDA-MB-231)	GI50 (HOP-18)	GI50 (DLD-1)
OC1(c2ccc(Cl)cc2)c2c(ccc3c2OCO3)C2=NCCN21 (stereo not given)	–	–	31.7 µM (inactive)	28.6 µM (inactive)	28.1 µM (inactive)	28.4 µM (inactive)	–	–
COc1ccc(C2=C(OC(=O)N(C)C)c3cccn3-c3cc(Cl)ccc3S2)cc1	–	–	5.3 µM (inactive)	> 10 µM (inactive)	> 10 µM (inactive)	> 10 µM (inactive)	–	–
O=C1NN=C2C=C(c3ccc(Cl)cc3)CC(c3cccc(Cl)c3)C12 (stereo not given)	–	–	60.7 µM (inactive)	23.4 µM (inactive)	19.1 µM (inactive)	17.7 µM (inactive)	–	–
CSc1nc(-c2ccc(C)cc2)c(C#N)c(=O)[nH]1	–	–	40.5 µM (inactive)	–	> 100 µM (inactive)	> 100 µM (inactive)	–	–
CCCCn1c(C)c(C(=O)CC)c(C(=O)NCCN2CCN(c3ccccc3Cl)CC2)c1C	–	–	21.8 µM (inactive)	16.2 µM (inactive)	18.9 µM (inactive)	17.1 µM (inactive)	–	–
CN(C)C(=O)OC1=CC2CCC(C1)N2C (stereo not given)	–	–	> 100 µM (inactive)	> 100 µM (inactive)	> 100 µM (inactive)	> 100 µM (inactive)	–	–
Brc1cccc(C2(CCCC3(c4cccc(Br)n4)OCCO3)OCCO2)n1	–	–	> 100 µM (inactive)	> 100 µM (inactive)	> 100 µM (inactive)	> 100 µM (inactive)	–	–
O=C(N/C(=C\c1ccccc1)C1Nc2ccccc2C(=O)O1)c1ccccc1 (stereo not given)	–	–	> 100 µM (inactive)	23.7 µM (inactive)	34.5 µM (inactive)	41.3 µM (inactive)	–	–
O=C(c1ccccc1)c1c(CC(O)c2ccccn2)n(C(=O)c2ccccc2)c2ccccc12 (stereo not given)	28.5 µM (inactive)	22 µM (inactive)	–	–	–	–	–	26.9 µM (inactive)
COc1cc(/C=N/N=C(\N)NO)cc(OC)c1OC	–	–	36.6 µM (inactive)	–	44.6 µM (inactive)	> 100 µM (inactive)	–	–
CC(C)CNC(=O)Cn1c2c(c3ccccc31)CCCC2	–	–	–	54 µM (inactive)	73.3 µM (inactive)	–	–	–
CCOC1=NC(C(F)(F)F)(C(F)(F)F)N=C(/N=C(/N)N(C)C(C(C)C)P(=O)(OC(C)C)OC(C)C)O1 (stereo not given)	–	–	52.7 µM (inactive)	> 100 µM (inactive)	> 100 µM (inactive)	> 100 µM (inactive)	–	–
CC(C)C(=O)OCC1OC(n2c(Br)nc3c(=O)[nH]c(N)nc32)C(OC(=O)C(C)C)C1OC(=O)C(C)C (stereo not given)	–	–	54.8 µM (inactive)	41 µM (inactive)	–	> 100 µM (inactive)	–	–
CC1CN=C(Nc2ccc(F)c(Cl)c2)S1 (stereo not given)	–	–	88.9 µM (inactive)	> 100 µM (inactive)	> 100 µM (inactive)	> 100 µM (inactive)	–	–
Cn1nc(-c2ccc(S(=O)(=O)N/C(=N/c3ccc(Cl)cc3)NN)s2)cc1C(F)(F)F	–	–	13.3 µM (inactive)	14.2 µM (inactive)	–	16.8 µM (inactive)	–	–
Cc1cc(S(=O)(=O)NC2=Nc3ccc(Cl)cc3C(c3ccccc3)N2)c(S)cc1Cl (stereo not given)	–	–	9.02 µM (inactive)	> 100 µM (inactive)	> 100 µM (inactive)	> 100 µM (inactive)	–	–
O=C1Nc2ccc(Br)cc2/C1=N/Nc1ccc([N+](=O)[O-])cc1[N+](=O)[O-]	3.66 µM (inactive)	–	–	–	–	–	1.12 µM (inactive)	4.58 µM (inactive)
CC(=O)O[C@H]1[C@@H](N2CCOCC2)C[C@H]2[C@@H]3CC=C4C[C@@H](N5CCCC5)CC[C@]4(C)[C@H]3CC[C@@]21C	–	–	> 100 µM (inactive)	> 100 µM (inactive)	> 100 µM (inactive)	> 100 µM (inactive)	–	–
CCCCC#COS(=O)(=O)c1ccc(C)cc1	64 µM (inactive)	44.1 µM (inactive)	–	–	–	–	–	57.9 µM (inactive)
Cn1cc(-c2ccc3c4ccccc4n(C)c3c2)c2ccccc21	> 100 µM (inactive)	> 100 µM (inactive)	–	–	–	–	> 100 µM (inactive)	–
O=C1c2ccccc2-c2nc(-c3ccccc3)cc3c2c1nc1ccccc13	–	–	21.5 µM (inactive)	1.89 µM (inactive)	1.87 µM (inactive)	17.6 µM (inactive)	–	–
NC1CNC(=O)c2c(Cl)sc(Cl)c21 (stereo not given)	–	–	> 100 µM (inactive)	> 100 µM (inactive)	> 100 µM (inactive)	> 100 µM (inactive)	–	–
Fc1c(F)c(F)c2c(c1F)CSc1nc3ccccc3n1-2	–	–	> 100 µM (inactive)	–	> 100 µM (inactive)	> 100 µM (inactive)	–	–
CSC(=S)N/N=C(\C)c1ccc(S(=O)(=O)N(C)c2ccccc2)cc1	–	–	66.5 µM (inactive)	30.3 µM (inactive)	22.9 µM (inactive)	98.4 µM (inactive)	–	–
C#C[C@]1(O)CC[C@H]2[C@@H]3CCC4=C/C(=N\OCCN5CCCCC5)CC[C@]4(C)[C@H]3CC[C@@]21C	–	–	2.69 µM (inactive)	1.66 µM (inactive)	2.24 µM (inactive)	13.9 µM (inactive)	–	–
C=C(C)C(O)C(O)C[C@@H](C)C1CC[C@]23C[C@]12CCC1[C@@]2(C)CCC(OC(C)=O)C(C)(C)C2CC(OC2OC(CO)C(O)C(O)C2O)[C@]13C (stereo not given in full)	–	–	17.4 µM (inactive)	17.3 µM (inactive)	17.5 µM (inactive)	15 µM (inactive)	–	–
